Reference: patent US20240148821A1, “PHARMACEUTICAL USE OF CYCLIC PEPTIDE COMPOUND” (CHUGAI SEIYAKU KABUSHIKI KAISHA, priority 2021, published 2024)
Numbered stars: 1 amine (or outer) side, 2 acyl side, 3 side chain; on linkers, the order of the positions; unused ones are H or OH. Bridge positions count the residues as written; N and C are the ends. Square brackets hold non-standard residues; d marks the D form. Peptide text beside a SMILES is read from it. * marks the point of attachment. hPhe(3,5-F2-4-CF3) = N[C@@H](CCc1cc(F)c(C(F)(F)F)c(F)c1)C(=O)O; hPhe(3-Cl-4-CF3) = N[C@@H](CCc1ccc(C(F)(F)F)c(Cl)c1)C(=O)O; hPhe(3-F,4-CF3) = N[C@@H](CCc1ccc(C(F)(F)F)c(F)c1)C(=O)O; NMePhe(4-CF3) = CN[C@@H](Cc1ccc(C(F)(F)F)cc1)C(=O)O; NMePhe(4-Me) = CN[C@@H](Cc1ccc(C)cc1)C(=O)O; NMedβ3hAla = C[C@H](CC(=O)[*:2])N(C)[*:1]; NMeGly(cPent) = CN[C@H](C(=O)O)C1CCCC1; Pro(4,4-F2) = O=C(O)[C@@H]1CC(F)(F)CN1; NMe3Pal = CN[C@@H](Cc1cccnc1)C(=O)O; NMeCha = CN[C@@H](CC1CCCCC1)C(=O)O; Hyp = O=C(O)[C@@H]1C[C@@H](O)CN1; NEtLeu = CCN[C@@H](CC(C)C)C(=O)O; NMeChg = CN[C@H](C(=O)O)C1CCCCC1; NMeI = CC[C@H](C)[C@H](NC)C(=O)O; NMeD = CN[C@@H](CC(=O)O)C(=O)O; NMeL = CN[C@@H](CC(C)C)C(=O)O; NMeNva = CCC[C@H](NC)C(=O)O; NMeV = CN[C@H](C(=O)O)C(C)C; Morpholide = C1CN(*)CCO1; NMeA = CN[C@@H](C)C(=O)O; NMeAib = CNC(C)(C)C(=O)O; Piperidide = C1CCN(*)CC1; Pyrrolidide = C1CCN(*)C1; Ac5c = NC1(C(=O)O)CCCC1; Aze = O=C(O)[C@@H]1CCN1; Sar = CNCC(=O)O

Tests used:
[1] = system: Human pancreatic cancer cell line AsPC-1 (G12D mutation Kras); assay: AsPC-1 cell growth inhibition (AsPC-1 CGI); format: cell-based; conditions: read-out: AsPC-1 cell growth inhibition, 50% growth inhibitory concentration (IC50 value); 96 hours, CellTiter-Glo, values classified in ranges
Description: Test compounds were serially dilated with dimethyl sulfoxide, and 200 nL was then dispensed to a U-bottom 96-well plate using Labcyte Echo. […] The cell suspension was dispensed to a. plate containing a test compound at 100 μL per well and incubated at 37° C. in a 5% carbon dioxide gas incubator. 96 hours later, 80 μL of CellTiter-Glo (Promega) was added to each well and fluorescence was measured.

[2] = target: protein-protein interaction between Kras and SOS1 (biotin-tagged human Kras loaded with GDP, His-tagged human SOS1) (Homo sapiens (Human), UniProt P01116, G12D); assay: Protein-protein interaction inhibition between Kras and SOS1 (KrasG12D-SOS PPI) using AlphaScreen; format: biochemical; conditions: AlphaScreen; biotin-tagged human Kras loaded with GDP, His-tagged human SOS1; read-out: KRAS G12D-SOS PPI IC50;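 also: kras produced in E. coli, Ni-coupled donor beads and streptavidin acceptor beads, excitation 680 nm with emission detected at 520–620 nm via singlet oxygen transfer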

Structure (SMILES)	IC50 [1]	IC50 [2]
CCO[C@@H]1C[C@H]2C(=O)NC3(CCCC3)C(=O)N(C)[C@@H]([C@@H](C)CC)C(=O)N(C)[C@H](C)CC(=O)N(C)[C@@H](CC(C)C)C(=O)N[C@@H]([C@@H](C)CC)C(=O)N(C)CC(=O)N(C)CC(=O)N(C)[C@@H](Cc3ccc(C(F)(F)F)cc3)C(=O)N(C)CC(=O)N[C@@H](CCc3ccc(C(F)(F)F)c(Cl)c3)C(=O)N2C1 [Compound 695] (cyclo([Ac5c][NMeI][NMedβ3hAla][NMeL]I[Sar][Sar][NMePhe(4-CF3)][Sar][hPhe(3-Cl-4-CF3)][Hyp](Et)))	≤ 20 nM	2.3 nM
CCC[C@H]1C(=O)N[C@@H]([C@@H](C)CC)C(=O)N(C)CC(=O)N(C)CC(=O)N(C)[C@@H](CC2CCCCC2)C(=O)N(C)CC(=O)N[C@@H](CCc2ccc(C(F)(F)F)c(Cl)c2)C(=O)N2C[C@H](OCC)C[C@H]2C(=O)NC2(CCCC2)C(=O)N(C)[C@@H](C2CCCCC2)C(=O)N(C)[C@H](C(=O)N2CCCC2)CC(=O)N1C [Compound 1267] ([NMeNva]I[Sar][Sar][NMeCha][Sar][hPhe(3-Cl-4-CF3)][Hyp](Et)[Ac5c][NMeChg][NMeD]-Pyrrolidide; lactam N-11)	≤ 20 nM	0.36 nM
CC[C@H](C)[C@@H]1NC(=O)[C@H](CC(C)C)N(C)C(=O)C[C@@H](C(=O)N(C)C)N(C)C(=O)[C@H](C2CCCC2)N(C)C(=O)C2(CCCC2)NC(=O)[C@@H]2CCCN2C(=O)[C@H](CCc2ccc(C(F)(F)F)c(F)c2)NC(=O)CN(C)C(=O)[C@H](Cc2ccc(C)cc2)N(C)C(=O)[C@@H]2CCN2C(=O)[C@H](C)N(C)C1=O [Compound 16] ([NMeL]I[NMeA][Aze][NMePhe(4-Me)][Sar][hPhe(3-F,4-CF3)]P[Ac5c][NMeGly(cPent)][NMeD]-NMe2; lactam N-11)	≤ 20 nM	0.7 nM
CC[C@H](C)[C@@H]1NC(=O)[C@H](CC(C)C)N(C)C(=O)C[C@@H](C(=O)N2CCCCC2)N(C)C(=O)[C@H](C(C)C)N(C)C(=O)C2(CCCC2)NC(=O)[C@@H]2CCCN2C(=O)[C@H](CCc2ccc(C(F)(F)F)c(Cl)c2)NC(=O)CN(C)C(=O)[C@H](CC2CCCCC2)N(C)C(=O)[C@@H]2CCN2C(=O)[C@H](CC2CCCCC2)N(C)C1=O [Compound 1574] ([NMeL]I[NMeCha][Aze][NMeCha][Sar][hPhe(3-Cl-4-CF3)]P[Ac5c][NMeV][NMeD]-Piperidide; lactam N-11)	> 500 nM	35 nM
CC[C@H](C)[C@@H]1NC(=O)[C@H](CC(C)C)N(C)C(=O)C[C@@H](C(=O)N2CCOCC2)N(C)C(=O)[C@H]([C@@H](C)CC)N(C)C(=O)C2(CCCC2)NC(=O)[C@@H]2CC(F)(F)CN2C(=O)[C@H](CCc2cc(F)c(C(F)(F)F)c(F)c2)NC(=O)CN(C)C(=O)[C@H](Cc2ccc(C(F)(F)F)cc2)N(C)C(=O)[C@@H]2CCN2C(=O)[C@H](C)N(C)C1=O [Compound 1348] ([NMeL]I[NMeA][Aze][NMePhe(4-CF3)][Sar][hPhe(3,5-F2-4-CF3)][Pro(4,4-F2)][Ac5c][NMeI][NMeD]-Morpholide; lactam N-11)	≤ 20 nM	0.62 nM
CC[C@H](C)[C@@H]1NC(=O)[C@H](CC(C)C)N(CC)C(=O)C[C@@H](C(=O)N2CCOCC2)N(C)C(=O)[C@H]([C@@H](C)CC)N(C)C(=O)C2(CCCC2)NC(=O)[C@@H]2CCCN2C(=O)[C@H](CCc2ccc(C(F)(F)F)c(Cl)c2)NC(=O)CN(C)C(=O)[C@H](Cc2ccc(C(F)(F)F)cc2)N(C)C(=O)[C@@H]2CCN2C(=O)[C@H](C)N(C)C1=O [Compound 1234] ([NEtLeu]I[NMeA][Aze][NMePhe(4-CF3)][Sar][hPhe(3-Cl-4-CF3)]P[Ac5c][NMeI][NMeD]-Morpholide; lactam N-11)	≤ 20 nM	4.5 nM
CC[C@H](C)[C@@H]1NC(=O)[C@H](C)N(C)C(=O)C[C@@H](C(=O)N2CCCCC2)N(C)C(=O)[C@H](C(C)C)N(C)C(=O)C(C)(C)N(C)C(=O)[C@@H]2CCCN2C(=O)[C@H](CCc2ccc(C(F)(F)F)c(Cl)c2)NC(=O)CN(C)C(=O)[C@H](CC2CCCCC2)N(C)C(=O)[C@@H]2CCN2C(=O)[C@H](C)N(C)C1=O [Compound 1034] ([NMeA]I[NMeA][Aze][NMeCha][Sar][hPhe(3-Cl-4-CF3)]P[NMeAib][NMeV][NMeD]-Piperidide; lactam N-11)	> 500 nM	1.7 nM
CC[C@H](C)[C@@H]1NC(=O)[C@H](CC(C)C)N(C)C(=O)C[C@@H](C(=O)N2CCOCC2)N(C)C(=O)[C@H](C2CCCCC2)N(C)C(=O)C2(CCCC2)NC(=O)[C@H](Cc2cccnc2)N(C)C(=O)[C@H](CCc2ccc(C(F)(F)F)c(Cl)c2)NC(=O)CN(C)C(=O)[C@H](CC2CCCCC2)N(C)C(=O)CN(C)C(=O)CN(C)C1=O [Compound 1745] ([NMeL]I[Sar][Sar][NMeCha][Sar][hPhe(3-Cl-4-CF3)][NMe3Pal][Ac5c][NMeChg][NMeD]-Morpholide; lactam N-11)	> 500 nM	1.3 nM
